How the values were obtained:
[1] = tested on: electrically-stimulated left atrium of the rat; test: Positive inotropic action in vitro on electrically-stimulated left atrium; assay type: cell-based; conditions: for EC40: Rattus norvegicus, read-out: -lg(EC40pot.) left atrium (converted); for EC40 / -lg(EC40pot.) left atrium: EC40pot. in mol/l, 40% increase in contraction force vs initial value, 31°; for (EC40pot.)theophylline /(EC40pot.)substance: activity on left atrium relative to theophylline
Protocol: Testing the positive inotropic action of the compounds in vitro on the electrically-stimulated left atrium of the rat is effected as follows:
Isometric contractions (HSE force sensor K-30; Watanabe recorder, Linear Corder Mark 5) of isolated left atria of rats (.male., 250-300 g) in an organ bath (10 ml, Tyrode nutrient solution, 31°, gassing with carbogen, initial tension of the organs 0.25 g) with electric stimulation (HSE stimulator, 7 V, 3 ms, 2 Hz) are recorded. After an equilibration period of 30 minutes, a dose-dependent increase in the contraction force is brought about by administration of the test substance in concentrations which increase semilogarithmically and cumulatively (for example 1×10^-6 +2×10^-6 +7×10^-6 +2×10^-5etc. mol/l), a constant inotropic response being waited for after each individual dose of the test substance before the next higher concentration is administered. The particular increase in the contraction force is expressed as a % of the initial value before administration of the substance. The concentration of the test substance which potentiates the contraction force of the atrium by 40% compared with the initial value (EC40pot.mol/l), expressed by the negative logarithm of (EC40pot.mol/l): -1 g(EC40pot.), serves as a measure of the cardiotonic activity.
(§1) The measure used for the organ-selective activity is the ratio between (EC40pot.) left atrium and (EC50)trachea. As a measure of the activity, the ratios between (EC50)trachea values and (EC40pot.)left atrium values of theophylline and the tested compound are given.

[2] = tested on: acetylcholine-induced bronchospasm; test: Protective action against acetylcholine-induced bronchospasm in conscious guinea pigs; assay type: in vivo, guinea pig; conditions: 100 μmol/kg p.o.; test 30 min after application; acetylcholine mist 0.06%
Protocol: Guinea pigs (250-350 g) in a closed Plexiglas cylinder (volume: 5 l) are exposed to a mist of acetylcholine (0.06% in 0.9% sodium chloride solution; Heyer Use 77 ultrasonic atomizer) twice at an interval of 20 minutes. The time from the start of atomization until there is onset of a marked struggle to breathe (in certain circumstances, a hypoxic convulsion in the lateral position) is measured and designated the latency perid. […] The test substance is administered orally by gavage (standard dose 100 μmol/kg, volume 1 ml of 4% strength methocel suspension in 0.9% strength sodium chloride solution/kg). After 30 minutes, the animals are again exposed to the mist of acetylcholine, and the latency periods are measured. A prolongation of the latency period to […] is regarded as a protective action.

[3] = tested on: isolated, spontaneously contracted chain of tracheal rings of the guinea pig; test: Bronchospasmolytic action in vitro on chain of tracheal rings (relaxation of spontaneous tonic contraction); assay type: cell-based; conditions: for EC50: Cavia porcellus, read-out: -lg(EC50) trachea (converted); for EC50 / -lg(EC50) trachea: EC50 in mol/l, 50% of maximum relaxation achieved by (-)isoprenaline 10^-6 mol/l, 37°; for (EC40pot.) left atrium / (EC50)trachea: organ-selectivity ratio, rat left atrium vs guinea pig trachea; for (EC50)theophylline / (EC50)substance: activity on trachea relative to theophylline
Protocol: To test the bronchospasmolytic action of the compounds in vitro on a chain of tracheal rings of the guinea pig, such tracheal rings are subjected to the following procedure:
Four parallel chains of tracheal rings (each consisting of 6 individual rings) of guinea pigs (.male. and .female., 430-600 g) in an organ bath [5 ml, Krebs-Henseleit solution with added phentolamine (10^-5 mol/l), 37°, initial tension of the organs 2 g, gassing with carbogen] develop a stable, spontaneous tonic contraction after about 20 to 30 minutes. […] Over a period of from 20 to 30 minutes, a complete dose/action curve of the test substance is thus obtained. The particular relaxation is expressed as a percentage fraction of the maximum relaxation achieved by administration of (-)isoprenaline (10^-6 mol/l).
as §1

Molecule | EC50 [3] [µM] | (EC50)theophylline / (EC50)substance [3] | -lg(EC50) trachea ([3]; listed as 2) | (EC50)theophylline / (EC50)substance ([3]; listed as 2) | EC40 [1] [µM] | Tripling of the latency period in N of 10 animals [2] | (EC40pot.) left atrium / (EC50)trachea [3] | (EC40pot.)theophylline /(EC40pot.)substance [1] | -lg(EC40pot.) left atrium [1] | -lg(EC40pot.) left atrium ([1]; listed as 2) | (EC40pot.)theophylline /(EC40pot.)substance ([1]; listed as 2) | -lg(EC50) trachea [3] | (EC40pot.) left atrium / (EC50)trachea ([3]; listed as 2)
Cn1c(=O)c2[nH]cnc2n(C)c1=O [Theophylline, theophylline, reference compound] | 135 | – | – | – | 417 | 3 of 10 animals | 3.1 | – | – | – | – | – | –
O=c1ccc(-c2cccc(OC(F)(F)C(F)F)c2)n[nH]1 [Serial No. 2, 6-[3-(1,1,2,2-tetrafluoroethoxy)phenyl]-3[2H]pyridazinone] | – | – | – | – | – | 8 of 10 animals | – | – | – | – | – | – | –
6-(4-difluoromethoxy-3-methoxyphenyl)-3[2H]pyridazinone [Serial No. 5] | – | 85 | – | – | – | 7 of 10 animals | 1.1 | 240 | 5.76 | – | – | 5.80 | –
COc1cc(-c2ccc(=O)[nH]n2)ccc1OC(F)F [compound 5] | 1.23 | 110 | – | – | 0.871 | 9 of 10 animals | 0.7 | 469 | – | – | – | – | –

The next lines start with results.

EC50 [3] [µM] | (EC50)theophylline / (EC50)substance [3] | -lg(EC50) trachea ([3]; listed as 2) | (EC50)theophylline / (EC50)substance ([3]; listed as 2) | Molecule | EC40 [1] [µM] | Tripling of the latency period in N of 10 animals [2] | (EC40pot.) left atrium / (EC50)trachea [3] | (EC40pot.)theophylline /(EC40pot.)substance [1] | -lg(EC40pot.) left atrium [1] | -lg(EC40pot.) left atrium ([1]; listed as 2) | (EC40pot.)theophylline /(EC40pot.)substance ([1]; listed as 2) | -lg(EC50) trachea [3] | (EC40pot.) left atrium / (EC50)trachea ([3]; listed as 2)
12 | 11.2 | – | – | O=c1ccc(-c2ccc(OC(F)F)cc2)n[nH]1 [compound 6] | 32.4 | 8 of 10 animals | 2.7 | 12.9 | – | – | – | – | –
14.5 | 9.3 | – | – | O=c1ccc(-c2cccc(OC(F)F)c2)n[nH]1 [compound 7] | > 100 | 9 of 10 animals | > 6.9 | – | – | – | – | – | –
– | 5.4 | 5.11 | 17.4 | O=c1ccc(-c2ccc(OC(F)(F)F)cc2)n[nH]1 [Serial No. 1, 6-(4-trifluoromethoxyphenyl)-3[2H]pyridazinone] | – | – | 4.0 | 4.2 | 4.0 | 4.66 | 19 | 4.60 | 2.8
9.12 | 13.2 | – | – | O=c1ccc(-c2ccc(OC(F)(F)C(F)F)cc2)n[nH]1 [Serial No. 3, 6-[4-(1,1,2,2-tetrafluoroethoxy)phenyl]-3[2H]pyridazinone] | 61.7 | – | 6.8 | 6.8 | – | – | – | – | –

Source: patent US4665074A, “6-(polyfluoroalkoxyphenyl) pyridazinones, their compositions, synthesis and use” (Byk Gulden Lomberg Chemische Fabrik GmbH, priority 1984, dated 1987)
